Experiments:
LcrF (VirF) = LcrF (VirF) (Yersinia pestis, UniProt P28808); experiment: biochemical; assay type: binding, Y. pseudotuberculosis
ExsA = biological target: T1, ExsA (Pseudomonas aeruginosa, UniProt P26993); experiment: In vitro activity of Mar inhibitors against ExsA: cell-free DNA binding assay; settings: purified ExsA from P. aeruginosa, inhibition of DNA binding in vitro
T1 construct: made in house
T1 sequence (P26993 1-278): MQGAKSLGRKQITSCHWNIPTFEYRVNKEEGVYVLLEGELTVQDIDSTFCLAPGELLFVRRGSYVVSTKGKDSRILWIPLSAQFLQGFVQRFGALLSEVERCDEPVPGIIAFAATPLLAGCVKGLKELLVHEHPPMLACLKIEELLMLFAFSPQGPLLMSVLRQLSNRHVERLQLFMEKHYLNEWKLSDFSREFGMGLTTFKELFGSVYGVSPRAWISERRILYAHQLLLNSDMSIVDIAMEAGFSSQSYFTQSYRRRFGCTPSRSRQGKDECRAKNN

P. aeruginosa = experiment: Whole cell assay: cytotoxicity of P. aeruginosa toward J774 cells (CytoTox 96, LDH release); settings: percent cytotoxicity of treated P. aeruginosa toward J774 cells
[1] = tested on: Yersinia pseudotuberculosis

Chain of LcrF (VirF) (P28808 whole entry, looked up): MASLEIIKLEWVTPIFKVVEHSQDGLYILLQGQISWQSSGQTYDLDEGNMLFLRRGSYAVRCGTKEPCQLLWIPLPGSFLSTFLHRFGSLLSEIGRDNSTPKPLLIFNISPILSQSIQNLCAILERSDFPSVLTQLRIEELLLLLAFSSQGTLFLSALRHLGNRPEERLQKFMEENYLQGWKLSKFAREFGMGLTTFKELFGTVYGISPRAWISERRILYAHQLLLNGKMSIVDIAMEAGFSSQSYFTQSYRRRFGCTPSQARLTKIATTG

SMILES | EC50 (LcrF (VirF)) [µM] | EC50 (ExsA) [µM] | Cytotoxicity at 50 μg/mL Pseudomonas (P. aeruginosa) | Cytotoxicity at 50 μg/mL Yersinia [1]
N#Cc1ccc2nc(-c3ccc(NC(=O)c4ccc(-n5ccnc5)cc4)cc3)n(O)c2c1 [CO] | 10.1 to 25 | > 25.1 | ** (cytotoxicities below 75% at 50 mg/mL) | –
NC(=O)c1ccc2nc(-c3ccc(NC(=O)c4ccc(F)cc4)cc3)n(O)c2c1 [Compound AD, 2-[4-(4-Fluoro-benzoylamino)-phenyl]-3-hydroxy-3H-benzoimidazole-5-carboxylic Acid Amide] | – | – | – | * (key: *: percent cytotoxicity above 75% at 50 μg/mL; **: cytotoxicities below 75% at 50 μg/mL)
O=C(Nc1ccc(-c2nc3ccc([N+](=O)[O-])cc3n2O)c(OCP(=O)(O)O)c1)c1ccc(F)cc1 [Compound AR, [5-(4-Fluoro-benzoylamino)-2-(1-hydroxy-6-nitro-1H-benzoimidazol-2-yl)-phenoxymethyl]-phosphonic Acid] | – | – | – | * (key: *: percent cytotoxicity above 75% at 50 μg/mL; **: cytotoxicities below 75% at 50 μg/mL)
O=C(/C=C/c1ccc(-n2ccnc2)cc1)Nc1ccc(-c2nc3ccc([N+](=O)[O-])cc3n2O)cc1 [Compound BK, (E)-N-[4-(1-Hydroxy-6-nitro-1H-benzoimidazol-2-yl)-phenyl]-3-(4-imidazol-1-yl-phenyl)-acrylamide] | – | < 10 | ** (cytotoxicities below 75% at 50 mg/mL) | ** (key: *: percent cytotoxicity above 75% at 50 μg/mL; **: cytotoxicities below 75% at 50 μg/mL)
O=C(/C=C/c1ccc(F)cc1)Nc1ccc(-c2nc3cc(F)c([N+](=O)[O-])cc3n2O)cc1 [Compound BO, N-[4-(5-Fluoro-1-hydroxy-6-nitro-1H-benzoimidazol-2-yl)-phenyl]-3-(4-fluoro-cinnamyl)-amide] | > 25.1 | > 25.1 | ** (cytotoxicities below 75% at 50 mg/mL) | –
CC(=O)c1ccc(/C=C/C(=O)Nc2ccc(-c3nc4ccc([N+](=O)[O-])cc4n3O)cc2)cc1 [Compound BQ, (E)-3-(4-Acetyl-phenyl)-N-[4-(1-hydroxy-6-nitro-1H-benzoimidazol-2-yl)-phenyl]-acrylamide] | 10.1 to 25 | < 10 | ** (cytotoxicities below 75% at 50 mg/mL) | –
O=C(/C=C/c1ccc(F)cc1)Nc1ccc(-c2nc3ccc(-n4cccn4)cc3n2O)cc1 [Compound CL, (E)-3-(4-Fluoro-phenyl)-N-[4-(1-hydroxy-6-pyrazol-1-yl-1H-benzoimidazol-2-yl)-phenyl]-acrylamide] | > 25.1 | > 25.1 | * (percent cytotoxicities above 75% at 50 mg/mL) | –
CC(=O)c1ccc(C(=O)Nc2ccc(-c3nc4ccc(-n5cccn5)cc4n3O)cc2)cc1 [Compound CM, 4-Acetyl-N-[4-(1-hydroxy-6-pyrazol-1-yl-1H-benzoimidazol-2-yl)-phenyl]-benzamide] | – | – | * (percent cytotoxicities above 75% at 50 mg/mL) | –
CC(=O)c1ccc(C(=O)Nc2ccc(-c3nc4ccc(-n5ccnc5)cc4n3O)cc2)cc1 [Compound CN, 4-Acetyl-N-[4-(1-hydroxy-6-imidazol-1-yl-1H-benzoimidazol-2-yl)-phenyl]-benzamide] | – | – | * (percent cytotoxicities above 75% at 50 mg/mL) | –
O=C(O)COn1c(-c2ccc(NC(=O)c3ccc(F)cc3)cc2)nc2ccc([N+](=O)[O-])cc21 [Compound V, {2-[4-(4-Fluoro-benzoylamino)-phenyl]-6-nitro-benzoimidazol-1-yloxy}-acetic Acid] | > 25.1 | – | – | * (key: *: percent cytotoxicity above 75% at 50 μg/mL; **: cytotoxicities below 75% at 50 μg/mL)
CC(C)c1ccc(/C=C/C(=O)Nc2ccc(-c3nc4ccc([N+](=O)[O-])cc4n3O)cc2)cc1 [H] | > 25.1 | > 25.1 | – | * (key: *: percent cytotoxicity above 75% at 50 μg/mL; **: cytotoxicities below 75% at 50 μg/mL)
C/C(=C\c1ccccc1)C(=O)Nc1ccc(-c2nc3ccc([N+](=O)[O-])cc3n2O)cc1 [I] | > 25.1 | – | – | * (key: *: percent cytotoxicity above 75% at 50 μg/mL; **: cytotoxicities below 75% at 50 μg/mL)
O=C(Nc1ccc2nc(-c3ccc([N+](=O)[O-])cc3)n(O)c2c1)c1ccc(F)cc1 [L] | – | – | – | * (key: *: percent cytotoxicity above 75% at 50 μg/mL; **: cytotoxicities below 75% at 50 μg/mL)
NC(=NO)c1ccc2nc(-c3ccc(NC(=O)c4ccc(F)cc4)cc3)n(O)c2c1 [M] | > 25.1 | > 25.1 | – | * (key: *: percent cytotoxicity above 75% at 50 μg/mL; **: cytotoxicities below 75% at 50 μg/mL)
O=C(C/C=C/c1ccccc1)Nc1ccc(-c2nc3ccc([N+](=O)[O-])cc3n2O)cc1 [N] | > 25.1 | – | * (percent cytotoxicities above 75% at 50 mg/mL) | * (key: *: percent cytotoxicity above 75% at 50 μg/mL; **: cytotoxicities below 75% at 50 μg/mL)
CC(=NO)c1ccc2nc(-c3ccc(NC(=O)c4ccc(N(C)C)cc4)cc3)n(O)c2c1 [U] | > 25.1 | > 25.1 | – | * (key: *: percent cytotoxicity above 75% at 50 μg/mL; **: cytotoxicities below 75% at 50 μg/mL)
CCc1cc(-c2nc3ccc([N+](=O)[O-])cc3n2O)ccc1NC(=O)c1ccc(F)cc1 [Z] | 10.1 to 25 | > 25.1 | – | * (key: *: percent cytotoxicity above 75% at 50 μg/mL; **: cytotoxicities below 75% at 50 μg/mL)
